Measured values as given in patent publication US6281354A, “Analogs of duocarmycin and cc-1065” (The Scripps Research Institute, priority 1999, dated 2001).

Assays:
[1] = system: DNA; settings: cited from earlier work
[2] = system: w794 DNA; assay: DNA alkylation (thermal strand cleavage, PAGE) within w794 DNA; assay type: biochemical, SV40
[3] = system: w794 DNA; assay: Rate of DNA alkylation at the single w794 high affinity site: pH and buffer dependence; assay type: biochemical, SV40; settings: for change in rate of DNA alkylation over 2 pH units: 10 mM phosphate buffer, pH 6.0-8.1; for slope of plot of pH versus log κobs: pH 6-7; for pH dependence of the rate of DNA alkylation: pH 7-8
Procedure: Rate of DNA Alkylation: pH Dependence. […] Because this was conducted using w794 DNA additionally containing >7000 base-pairs and multiple binding sites within the unlabeled portion of the DNA, the comparisons were conducted at concentrations that provide saturated binding and restrict the kinetic analysis to the pseudo-first order rate constant for alkylation. […] The relative lack of dependence on the acid concentration (pH) especially in the most relevant pH range of 7-8 in conjunction with the observations made in the accompanying paper has led us to propose an alternative source of reaction catalysis.
Relative Rates of DNA Alkylation for (+)-1 at pH 6-8. Eppendorf tubes containing 5' end-labeled w794 DNA (9 μL) in phosphate buffer (10 mM) at pH 6.0, 6.6, 7.1, 7.6, and 8.1 were prepared. The solutions at each pH were treated with (+)-duocarmycin SA (1μL, 10^-6 M in DMSO), mixed and incubated at 25° C. for 0.5, 1.0, 1.5, 2.0 and 3.0 h. […] The reactions were stopped at each time interval by EtOH precipitation of the DNA. The alkylated DNA was resuspended in TE buffer (10 μL, pH 7.5) and heated at 100° C. for 30 min follwed by PAGE and autoradiography as detailed above.
Since these observations sharply contrast the proposed important role of acid catalysis for activation of the agents toward DNA alkylation which has served as the basis for one prominent proposal for the origin of the DNA alkylation selectivity, we have examined in detail the pH dependence of the rate of DNA alkylation for duocarmycin SA (1) and CCBI-TMI over a physiologically relevant range. […] Between pH 6-7, the slope of the plot of pH versus log κobs was 0.2-0.3, far lower than that of 1.0 required of a first-order dependence on acid concentration.

[4] = Chemical/aqueous solvolysis reactivity followed by UV; assay type: physicochemical
Description: The solvolysis reactivities of N--BOC-CNA (78) and CNA (79) were followed spectrophotometrically by UV at both pH 3 (50% CH3 OH-buffer, buffer=4:1:20 v/v/v 0.1 M citric acid, 0.2 M Na2 HPO4, H2 O) and pH 7 (50% CH3 OH--H2 O). […] Particularly informative are comparisons of the benzo series of agents that differ only in the C-ring size (i.e., 76-79). Solvolysis reactivity smoothly increases through the series CBI<CBQ<CNA with both the N--BOC derivatives and the free NH derivatives.
Aqueous Solvolysis of N--BOC-CNA (78) and CNA (79). Samples of 78 (150 μg) and 79 (150 [g) were dissolved in CH3 OH (1.5 mL) and the resulting solutions were mixed with aqueous buffer (pH 3, 1.5 mL, 4:1:20 (v:v:v) 0.1 M citric acid, 0.2 M Na2 HPO4, and deionized H2 O respectively). Similarly, a solution of 78 (150 μg) in CH3 OH (1.5 mL) was mixed with deionized H2 O (pH 7, 1.5 mL). The UV spectra of the solutions were measured immediately after mixing with the appropriate aqueous solution. The blank and the solvolysis reaction solutions were stoppered, protected from light, and allowed to stand at 25° C. The total reaction times reflect those required to observe no further change in absorbance. For the solvolysis of 78 at pH 3, the UV spectrum was taken every 30 s for 10 min and then every 3 min for the next 40 min. The decrease of the absorbance at 319 nm was monitored. […] For the solvolysis of 78 at pH 7, the UV spectrum was monitored every 5 min for 19 h. […] For the solvolysis of 79 at pH 3, the UV spectrum was monitored every 2 min for the first 110 min and then every 10 min for the next 4 h. The decrease in the absorbance at 345 nm was recorded.

[5] = Calculated rate constant for acid-catalyzed solvolysis; assay type: physicochemical
[6] = system: duplex DNA (w794, w836, c988, c820, c1346); assay type: biochemical, SV40
[7] = system: w794 DNA; settings: pH 7.5, earlier studies; cited from earlier work
[8] = In vitro cytotoxic activity
[9] = system: w836 DNA; assay: DNA alkylation sites and relative rates within the six-base A sequence (5'-AAAAAA) of w836 DNA; assay type: biochemical, SV40; settings: 5'-AAAAAA
[10] = system: w794 DNA; assay: Relative rates of DNA alkylation for (+)-1, 53 and 54 at the w794 5'-AATTA site; assay type: biochemical, SV40
Procedure: Modifications in the Trimethoxyindole Subunit: Role of the Methoxy Substituents. DNA alkylation by the natural enantiomers of 53-56 were compared with that of 1 in w794 DNA.
Relative Rates of DNA Alkylation for (+)-1, 53, and 54. Following the procedure detailed above, Eppendorf tubes containing 5' end-labeled w794 DNA (9 μL) in TE buffer (pH 7.5) were treated with (+)-duocarmnycin SA, 53, or 54 (1 μL, 10^-5 M in DMSO). […] The solutions were mixed and incubated at 25° C. for 1, 3, 6, 12, 24, 48, and 72 h, respectively. Subsequent isolation of the alkylated DNA by EtOH precipitation, resuspension in TE buffer (10 μL, pH 7.5), thermolysis (30 min, 100° C.), concurrent PAGE, and autoradiography were conducted as detailed above. The relative rate for the alkylation at the 5'-AATTA site was derived from the slopes of the plots of percent integrated optical density (IOD) of the high affinity alkylation site cleavage bands versus time.

[11] = 10^-6 M, 25° C., pH 7.6, 10 mM phosphate
[12] = 10^-5 M, 25° C., 1-72 h, 5'-d(AATTA)

| Compound | adenine N3 adduct formation (addition to least substituted cyclopropane carbon) [1] | solvolysis reactivity/stability in words or rank order [4] | calculated first-order rate constant for acid-catalyzed solvolysis, pH 7.6 [5] | AT-rich adenine N3 alkylation selectivity (size of site) [6] | change in rate of DNA alkylation over 2 pH units ([3]; 10^-6 M, 25° C.) | slope of plot of pH versus log κobs [3] | pH dependence of the rate of DNA alkylation [3] | relative rate of DNA alkylation at w794 high affinity site [7] | also measured |
| --- | --- | --- | --- | --- | --- | --- | --- | --- | --- |
| COc1c(O)c2c(c3cc(C(=O)N4CCc5c4c(O)c(OC)c4[nH]c(C(=O)N6C[C@H]7C[C@@]78C6=CC(=O)c6[nH]cc(C)c68)cc54)[nH]c13)CCN2C(N)=O [(+)-CC-1065, reference compound] | > 85% | remarkable stability of 1-3 even at pH 5 | 2.5×10^-11 s^-1 | 5 base-pair | – | – | – | – | high affinity alkylation site in w794 DNA [2]: 5'-AATTA; pseudo first-order rate constant for DNA alkylation, pH 7.6 (unit not given) [3, 11]: 3.36×10^-4 |
| COC(=O)C1(C)NC2=C(C1=O)[C@@]13C[C@@H]1CN(C(=O)c1cc4cc(OC)c(OC)c(OC)c4[nH]1)C3=CC2=O (some centres unmarked) [duocarmycin A] | 86-92% | remarkable stability of 1-3 even at pH 5 | – | – | – | – | – | – | – |
| COc1cc2cc(C(=O)N3C[C@H]4C[C@@]45C3=CC(=O)c3ccc(C#N)cc35)[nH]c2c(OC)c1OC [CCBI-TMI] | – | – | – | – | < 3 × | 0.2-0.3 | the rate dependence on pH essentially disappeared | 2.5 × | effect of EDTA on the rate of DNA alkylation ([3]; Tris or phosphate buffer): had or no effect; faster alkylation of w794 high affinity site than (+)-1 ([3]; throughout the pH range): 1.9-2.5 × |
| COc1cc2cc(C(=O)N3CC4CC45C3=CC(=O)c3ccccc35)[nH]c2c(OC)c1OC (centres unmarked) [CBI-TMI] | – | – | – | – | – | – | – | 1.0 × | – |
| COc1ccc2c(c1)C13CC1CN(C(=O)c1cc4cc(OC)c(OC)c(OC)c4[nH]1)C3=CC2=O (centres unmarked) [MCBI-TMI] | – | – | – | – | – | – | – | 1.9 × | – |
| COC(=O)c1cc2c([nH]1)C(=O)C=C1N(C(=O)c3cc4cc(OC)c(OC)c(OC)c4[nH]3)CC3CC123 (centres unmarked) [duocarmycin SA] | 95-100% | – | 2.7×10^-11 s^-1 | 3.5 base-pair | < 2 × | 0.2-0.3 | essentially no dependence | 0.9 × | concentration dependence of the rate of DNA alkylation (pH study) ([3]; 10^-4 -10^-6 M): independent of agent concentration; change in rate of DNA alkylation over 2 pH units ([3]; 10^-6 M, 25° C., listed as (+)-duocarmycin SA (1)): < 3 ×; pseudo-first order rate constant for DNA alkylation, pH 7.1 ([3]; 10^-6 M, 25° C., pH 7.1, 5'-AATTA): 1.69×10^-4 s^-1; pseudo first-order rate constant for DNA alkylation, pH 7.6 [3, 11]: 1.58×10^-4 s^-1; pH dependence of the rate of DNA alkylation ([3]; listed as (+)-duocarmycin SA): the rate dependence on pH essentially disappeared; pH dependence of the rate of DNA alkylation ([3]; listed as (+)-duocarmycin SA (1)): the rate dependence on pH essentially disappeared; t1/2 of DNA alkylation ([3]; pH 7 / 7.1): 1.1 h; t1/2 of DNA alkylation, pH 7.6 ([3]; pH 7.6): 1.2 h; calculated rate constant for acid-catalyzed solvolysis, pH 7 ([5]; pH 7): 1.08×10^-10 s^-1; cytotoxic / antitumor activity in words [8]: biologically the most potent; AT-rich binding site covered in w836 DNA [9]: 3.5 base-pair; alkylated adenines within six-base A-rich sequence of w836 DNA [9]: each of the four 3' adenines; concentration dependence of the rate of DNA alkylation ([10]; 10^-4 -10^-6 M): independent of agent concentration; relative rate of DNA alkylation κrel versus 53 [10, 12]: 18-33; relative rate of DNA alkylation κrel, 1 versus 54 [10, 12]: 1.3-2.3 |
